Source: the supplement of paper PMC11061612

Columns and labels:
[1] = tested on: HCC1500 (Breast Carcinoma); assay: Bliss excess, mean over the matrix (fraction); higher = more synergy
In short: (§1)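 Cell lines in DMEM/F12 or RPMI with 10% FBS were plated in 1536-well plates, held 24 hours at 37°C, 5% CO2, then given two-drug dose matrices for 72 hours (DMSO typically 0.2%). Viability was read by CellTiter-Glo 2.0 luminescence and scaled as inhibition from 0 (vehicle wells) to 1 (blank wells). Combination Emax is the second-highest inhibition in the matrix; Bliss excess is observed combination effect minus expected EA + EB − EA·EB, EA and EB being single-agent effects.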

[2] = tested on: OACM5-1 (Esophageal Adenocarcinoma); assay: as above
In short: as §1

EW-1 (Ewing's Sarcoma) = assay: as above
In short: as §1

[3] = tested on: HCC1937 (Breast Carcinoma); assay: as above
In short: as §1

[4] = tested on: NCI-H650 (Lung Adenocarcinoma); assay: as above
In short: as §1

[5] = tested on: LC-1-sq (Squamous Cell Lung Carcinoma); assay: as above
In short: as §1

Hey (Ovarian Carcinoma) = assay: as above
In short: as §1

[6] = tested on: HCC2998 (Colorectal Carcinoma); assay: as above
In short: as §1

[7] = tested on: NCI-H1838 (Lung Adenocarcinoma); assay: as above
In short: as §1

[8] = tested on: NCI-H1092 (Small Cell Lung Carcinoma); assay: as above
In short: as §1

SK-N-AS (Neuroblastoma) = assay: combination Emax (second highest fraction inhibited in the dose matrix, 72 h); higher = more inhibition; extreme values may be limits of the assay
In short: as §1

[9] = tested on: SKN (Other Solid Carcinomas); assay: as above
In short: as §1

[10] = tested on: HAL-01 (B-Lymphoblastic Leukemia); assay: as above
In short: as §1

[11] = tested on: NCI-H1355 (Lung Adenocarcinoma); assay: as above
In short: as §1

[12] = tested on: Ca-Ski (Cervical Carcinoma); assay: as above
In short: as §1

[13] = tested on: MOLT-4 (T-Lymphoblastic Leukemia); assay: as above
In short: as §1

[14] = tested on: EFO-21 (Ovarian Carcinoma); assay: as above
In short: as §1

[15] = tested on: Mo-T (Other Blood Carcinomas); assay: as above
In short: as §1

[16] = tested on: SW872 (Other Solid Carcinomas); assay: as above
In short: as §1

[17] = tested on: SK-LU-1 (Lung Adenocarcinoma); assay: Bliss excess, mean over the matrix (fraction); higher = more synergy
In short: as §1
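For Bliss excess, mean over the matrix in this document: after 72 h of two-drug dosing.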

| Compound | Bliss excess [1] | Bliss excess [2] | Bliss excess (EW-1 (Ewing's Sarcoma)) | Bliss excess [3] | Bliss excess [4] | Bliss excess [5] | Bliss excess (Hey (Ovarian Carcinoma)) | Bliss excess [6] | Bliss excess [7] | Bliss excess [8] | combination Emax (SK-N-AS (Neuroblastoma)) | combination Emax [9] | combination Emax [10] | combination Emax [11] | combination Emax [12] | combination Emax [13] | combination Emax [14] | combination Emax [15] | combination Emax [16] | Bliss excess [17] |
| --- | --- | --- | --- | --- | --- | --- | --- | --- | --- | --- | --- | --- | --- | --- | --- | --- | --- | --- | --- | --- |
| Cc1cc2ncnn2cc1Nc1ncc2c(n1)n(C1CCOCC1)c(=O)n2C [AZD7648] + C=CCn1c(=O)c2cnc(Nc3ccc(N4CCN(C)CC4)cc3)nc2n1-c1cccc(C(C)(C)O)n1 [AZD1775] (first compound max 10 µM, partner max 1 µM) | 0.0414 | -0.0206 | 0.0272 | -0.0069 | 0.0029 | 0.0567 | -0.0086 | 0.0368 | -0.0149 | -0.0873 | 0.949 | 0.38 | 0.914 | 0.672 | 0.704 | 1 | 0.511 | 0.52 | 0.384 |  |
| CN(CCO)CC[C@H](CSc1ccccc1)Nc1ccc(S(=O)(=O)NC(=O)c2ccc(N3CCC([C@@H](O)c4ccccc4-c4ccc(Cl)cc4)CC3)cc2)cc1S(=O)(=O)C(F)(F)F [AZD4320] + CC(=O)O[C@H]1C(=O)[C@@]2(C)[C@H]([C@H](OC(=O)c3ccccc3)[C@]3(O)C[C@H](OC(=O)[C@H](O)[C@@H](NC(=O)c4ccccc4)c4ccccc4)C(C)=C1C3(C)C)[C@]1(OC(C)=O)CO[C@@H]1C[C@@H]2O [Paclitaxel] (first compound max 1 µM, 7x7, partner max 3 µM) |  |  |  |  |  |  |  |  |  |  | 0.884 | 0.978 | 0.999 | 0.984 | 1 | 1 | 0.714 | 1 | 0.95 | 0.116 |
| Cc1cc2ncnn2cc1Nc1ncc2c(n1)n(C1CCOCC1)c(=O)n2C [AZD7648] + CN(C)CCCOc1ccc(-c2ccc3ncc4c(c3c2)n(C2CCOCC2)c(=O)n4C)cn1 [AZD0156] (first compound max 10 µM, 7x7, partner max 1 µM) | 0.0414 | 0.0206 | 0.0734 | -0.0129 | 0.0061 | 0.03 | 0.0367 | 0.0329 | 0.0203 | -0.0312 | 0.245 | 0.264 | 0.398 | 0.482 | 0.296 | 0.246 | 0.332 | 0.3 | 0.264 |  |
| Cc1cc2ncnn2cc1Nc1ncc2c(n1)n(C1CCOCC1)c(=O)n2C [AZD7648] + CCN(CCO)CCCOc1ccc2c(Nc3cc(CC(=O)Nc4cccc(F)c4)[nH]n3)ncnc2c1 [AZD2811] (first compound max 10 µM, 7x7, partner max 1 µM) | 0.0507 | -0.0151 | 0.053 | 0.0064 | -0.0147 | 0.0569 | 0.113 | -0.0065 | -0.0491 | 0.0041 | 0.46 | 0.282 | 0.342 | 0.519 | 0.349 | 0.965 | 0.297 | 0.37 | 0.271 |  |
| Cc1cc2ncnn2cc1Nc1ncc2c(n1)n(C1CCOCC1)c(=O)n2C [AZD7648] + COc1cc([C@@H]2c3cc4c(cc3[C@@H](O[C@@H]3O[C@@H]5CO[C@@H](C)O[C@H]5[C@H](O)[C@H]3O)[C@H]3COC(=O)[C@H]23)OCO4)cc(OC)c1O [Etoposide] (first compound max 10 µM, 7x7, partner max 10 µM) |  |  |  |  |  |  |  |  |  |  | 0.472 | 0.784 | 1 | 0.535 | 0.884 | 1 | 0.438 | 0.909 | 0.817 | 0.0201 |
| N#Cc1cnc(Nc2cc(NC[C@H]3CNCCO3)c(C(F)(F)F)cn2)cn1 [SRA737] + C=CCn1c(=O)c2cnc(Nc3ccc(N4CCN(C)CC4)cc3)nc2n1-c1cccc(C(C)(C)O)n1 [AZD1775] (first compound max 10 µM, partner max 1 µM) |  |  |  |  |  |  |  |  |  |  | 0.811 | 0.518 | 1 | 0.633 | 0.846 | 1 | 0.431 | 0.565 | 0.683 | 0.0096 |
| CN(CCO)CC[C@H](CSc1ccccc1)Nc1ccc(S(=O)(=O)NC(=O)c2ccc(N3CCC([C@@H](O)c4ccccc4-c4ccc(Cl)cc4)CC3)cc2)cc1S(=O)(=O)C(F)(F)F [AZD4320] + C[C@@H](Nc1cc(F)cc(F)c1)c1cc(C(=O)N(C)C)cc2c(=O)cc(N3CCOCC3)oc12 [AZD8186] (first compound max 1 µM, 7x7, partner max 3 µM) | 0.016 | 0.0343 | 0.0604 | -0.008 | 0.0081 | 0.022 | -0.0027 | -0.0212 | 0.0139 | 0.0389 | 0.406 | 0.634 | 0.935 | 0.34 | 0.509 | 0.982 | 0.381 | 0.989 | 0.293 |  |
